Results taken from patent US20150258059A1, “ANTIMICROBIAL AND RADIOPROTECTIVE COMPOUNDS” (BioDiem, Ltd, priority 2001, published 2015).
Values after ≈ are worked out from the molar mass of the structure shown.

What was measured:
[1] = tested on: Staphylococcus aureus M-209; assay: Sensitivity of strains: suppression of growth; assay type: cell-based; conditions: Compound (1) 1.0%; antibiotics disc method
[2] = tested on: Acinetobacter B-677; assay: Sensitivity of strains: suppression of growth; assay type: cell-based; conditions: Compound (1) 1.0%; antibiotics disc method
[3] = tested on: Escherichia coli B-65; assay: Sensitivity of strains: suppression of growth; assay type: cell-based; conditions: Compound (1) 1.0%; antibiotics disc method
[4] = tested on: Bacillus sp. B-575; assay: Sensitivity of strains: suppression of growth; assay type: cell-based; conditions: Compound (1) 1.0%; antibiotics disc method; also: key: + sensitive strains; + moderately sensitive strains; − stable strains
[5] = tested on: Staphylococci epidermidis D-513; assay: Sensitivity of strains: suppression of growth; assay type: cell-based; conditions: Compound (1) 1.0%; antibiotics disc method
[6] = tested on: Staphylococcus aureus B-685; assay: Sensitivity of strains: suppression of growth; assay type: cell-based; conditions: Compound (1) 1.0%; antibiotics disc method
[7] = tested on: Salmonella paratyphi M-16469; assay: Sensitivity of strains: suppression of growth; assay type: cell-based; conditions: Compound (1) 1.0%; antibiotics disc method
[8] = tested on: Salmonella typhimurium M-727; assay: Sensitivity of strains: suppression of growth; assay type: cell-based; conditions: Compound (1) 1.0%; antibiotics disc method
[9] = tested on: Enterobacter aerogenes B-679; assay: Sensitivity of strains: suppression of growth; assay type: cell-based; conditions: Compound (1) 1.0%; antibiotics disc method
[10] = tested on: Yersinia pseudotuberculosis; assay type: cell-based; conditions: Compound (1) 1.0%; antibiotics disc method
[11] = tested on: Escherichia coli M-17; assay: Sensitivity of strains: suppression of growth; assay type: cell-based; conditions: Compound (1) 1.0%; antibiotics disc method
[12] = tested on: Alkaligenes sp. B-667; assay: Sensitivity of strains: suppression of growth; assay type: cell-based; conditions: Compound (1) 1.0%; antibiotics disc method
[13] = tested on: Acinetobacter B-681; assay: Sensitivity of strains: suppression of growth; assay type: cell-based; conditions: Compound (1) 1.0%; antibiotics disc method
[14] = tested on: Shigella sonnei B-720; assay: Sensitivity of strains: suppression of growth; assay type: cell-based; conditions: Compound (1) 1.0%; antibiotics disc method
[15] = tested on: Neisseria meningitidis M-A72; assay: Sensitivity of strains: suppression of growth; assay type: cell-based; conditions: Compound (1) 1.0%; antibiotics disc method
[16] = tested on: Conditional pathogenic enterobacteria gram-negative aerobic bacilli; assay type: cell-based; also: key: + sensitive strains; + moderately sensitive strains; − stable strains
[17] = tested on: Staphylococcus epidermidis BK-30; assay: Sensitivity of strains: suppression of growth; assay type: cell-based; conditions: Compound (1) 1.0%; antibiotics disc method
[18] = tested on: β-hemolytic streptococcus B-624; assay: Sensitivity of strains: suppression of growth; assay type: cell-based; conditions: Compound (1) 1.0%; antibiotics disc method
[19] = tested on: Neisseria meningitidis M-6231; assay: Sensitivity of strains: suppression of growth; assay type: cell-based; conditions: Compound (1) 1.0%; antibiotics disc method
[20] = tested on: Klebsiella pneumoniae M-A21; assay: Sensitivity of strains: suppression of growth; assay type: cell-based; conditions: Compound (1) 1.0%; antibiotics disc method
[21] = tested on: Klebsiella pneumoniae M-248; assay: Sensitivity of strains: suppression of growth; assay type: cell-based; conditions: Compound (1) 1.0%; antibiotics disc method
[22] = tested on: Citrobacter diversus B-678; assay: Sensitivity of strains: suppression of growth; assay type: cell-based; conditions: Compound (1) 1.0%; antibiotics disc method
[23] = tested on: Staphylococcus aureus B-674; assay: Sensitivity of strains: suppression of growth; assay type: cell-based; conditions: Compound (1) 1.0%; antibiotics disc method
[24] = tested on: Escherichia coli B-683; assay: Sensitivity of strains: suppression of growth; assay type: cell-based; conditions: Compound (1) 1.0%; antibiotics disc method
[25] = tested on: Pseudomonas aeruginosa B-601; assay: Sensitivity of strains: suppression of growth; assay type: cell-based; conditions: Compound (1) 1.0%; antibiotics disc method
[26] = tested on: Staphylococcus aureus M-12159; assay: Sensitivity of strains: suppression of growth; assay type: cell-based; conditions: Compound (1) 1.0%; antibiotics disc method
[27] = tested on: Enterobacter aerogenes B-687; assay: Sensitivity of strains: suppression of growth; assay type: cell-based; conditions: Compound (1) 1.0%; antibiotics disc method
[28] = tested on: Acinetobacter B-676; assay: Sensitivity of strains: suppression of growth; assay type: cell-based; conditions: Compound (1) 1.0%; antibiotics disc method
[29] = tested on: Shigella flexneri M-2A6907; assay: Sensitivity of strains: suppression of growth; assay type: cell-based; conditions: Compound (1) 1.0%; antibiotics disc method
[30] = tested on: Alkaligenes sp. B-689; assay: Sensitivity of strains: suppression of growth; assay type: cell-based; conditions: Compound (1) 1.0%; antibiotics disc method
[31] = tested on: Corynebacterium diphtheriae B-670; assay: Sensitivity of strains: suppression of growth; assay type: cell-based; conditions: Compound (1) 1.0%; antibiotics disc method
[32] = tested on: γ-hemolytic streptococcus B-672; assay: Sensitivity of strains: suppression of growth; assay type: cell-based; conditions: Compound (1) 1.0%; antibiotics disc method
[33] = tested on: Mycobact tub. H.37RV; assay: Anti-TB effect, serial double dilution in liquid medium; assay type: cell-based, M tuberculosis; conditions: 10-14 days incubation at 37° C.; read-out: Minimal Inhibitory Concentration

Compound | Suppression of Growth (+/−) [1] | Suppression of Growth (+/−) [2] | Suppression of Growth (+/−) [3] | Suppression of Growth (+/−) [5] | Suppression of Growth (+/−) [6] | Suppression of Growth (+/−) [7] | Suppression of Growth (+/−) [8] | Suppression of Growth (+/−) [9] | Suppression of Growth (+/−) [10] | Suppression of Growth (+/−) [11] | Suppression of Growth (+/−) [12] | Suppression of Growth (+/−) [13] | Suppression of Growth (+/−) [14] | Suppression of Growth (+/−) [15] | Suppression of Growth (+/−) [16] | Suppression of Growth (+/−) [17] | Suppression of Growth (+/−) [18] | Suppression of Growth (+/−) [19] | Suppression of Growth (+/−) [20] | Suppression of Growth (+/−) [21] | also measured
CCC[C@@H]1C[C@@H](C(=O)N[C@@H]([C@H]2O[C@H](SC)[C@H](O)[C@@H](O)[C@H]2O)[C@@H](C)O)N(C)C1 [Antibiotic 6, lincomycin] | − | − | + | + | − | − | − | − | − | − | − | − | − | − | − | − | − | − | − | − | Suppression of Growth (+/−) [4]: +; Suppression of Growth (+/−) [22]: −; Suppression of Growth (+/−) [23]: −; Suppression of Growth (+/−) [24]: −; Suppression of Growth (+/−) [25]: −; Suppression of Growth (+/−) [26]: −; Suppression of Growth (+/−) [27]: −; Suppression of Growth (+/−) [28]: −; Suppression of Growth (+/−) [29]: −; Suppression of Growth (+/−) [30]: −; Suppression of Growth (+/−) [31]: −; Suppression of Growth (+/−) [32]: −
NNC(=O)c1ccncc1 [Isoniazid] |  |  |  |  |  |  |  |  |  |  |  |  |  |  |  |  |  |  |  |  | MIC [33]: 0.02 to 0.1 µg/mL (≈ 0.146 to 0.729 µM)
CC[C@H]1OC(=O)[C@H](C)[C@@H](O[C@H]2C[C@@](C)(OC)[C@@H](O)[C@H](C)O2)[C@H](C)[C@@H](O[C@@H]2O[C@H](C)C[C@H](N(C)C)[C@H]2O)[C@](C)(O)C[C@@H](C)C(=O)[C@H](C)[C@@H](O)[C@]1(C)O [Antibiotic 14, erythromycin] | − | − | + | − | − | − | − | − | − | + | − | − | − | − | − | − | − | − | − | − | Suppression of Growth (+/−) [22]: −; Suppression of Growth (+/−) [23]: +; Suppression of Growth (+/−) [24]: +; Suppression of Growth (+/−) [25]: +; Suppression of Growth (+/−) [26]: −; Suppression of Growth (+/−) [27]: −; Suppression of Growth (+/−) [28]: −; Suppression of Growth (+/−) [29]: −; Suppression of Growth (+/−) [30]: −; Suppression of Growth (+/−) [31]: +; Suppression of Growth (+/−) [32]: −
CC[C@@H](CO)NCCN[C@@H](CC)CO [Ethambutol] |  |  |  |  |  |  |  |  |  |  |  |  |  |  |  |  |  |  |  |  | MIC [33]: 1 to 2.5 µg/mL (≈ 4.89 to 12.2 µM)
